# Assay results from US7064120B2, “Tricyclic pyridyl carboxamides and derivatives thereof tocolytic oxytocin receptor antagonists” (Wyeth, priority 2001, dated 2006).
# pIC50: −log10 of the molar value.
# Molecular target: T1, human vasopressin V2 receptor subtype (Homo sapiens, UniProt P30518)
# T1 construct: host or cells: CHO cells, stably transfected (pZeoSV vector)
# Assay: Vasopressin binding in CHO cell membranes expressing human vasopressin V2 subtype receptors ([3H]arginine vasopressin radioligand binding)
# Conditions: 100 nM
# Outline: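 Values are IC50 in nM or percent inhibition at a stated concentration, from scintillation counts after filtration. Binding ran 60 min at room temperature: [3H]arginine vasopressin, human V2-transfected CHO membranes (25 to 50 μg protein/well), pH 7.4 Tris-HCl buffer containing MgCl2, BSA, protease inhibitors.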
# T1 sequence (P30518 whole entry): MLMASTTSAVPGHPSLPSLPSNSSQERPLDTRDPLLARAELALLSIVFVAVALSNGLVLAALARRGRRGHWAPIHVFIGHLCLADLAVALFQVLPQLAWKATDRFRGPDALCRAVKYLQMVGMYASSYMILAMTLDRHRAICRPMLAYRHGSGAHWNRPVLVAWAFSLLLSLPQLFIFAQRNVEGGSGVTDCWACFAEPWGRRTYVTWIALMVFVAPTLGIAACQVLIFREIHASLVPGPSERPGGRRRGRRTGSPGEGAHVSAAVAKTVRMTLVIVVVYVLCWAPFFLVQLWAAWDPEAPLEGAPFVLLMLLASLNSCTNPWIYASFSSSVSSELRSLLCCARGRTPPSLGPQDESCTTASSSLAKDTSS
row,Compound,inhibition at 0.1 µM
1,"COc1cc(-c2ccccc2C)c(Cl)cc1C(=O)N1Cc2ccc(C(=O)N3CCN(c4ccccn4)CC3)n2Cc2ccccc21 [Example 81, {10-[(6-Chloro-3-methoxy-2′-methyl-[1,1′-biphenyl]-4-yl)carbonyl]-10,11-dihydro-5H-pyrrolo[2,1-c][1,4]benzodiazepin-3-yl}[4-(2-pyridinyl)-1-piperazinyl]methanone]",5%
2,"COc1cc(C(=O)N2Cc3ccc(C(=O)N(C)CCc4ccccn4)n3Cc3ccccc32)ccc1-c1ccccc1C [Example 69, 10-[(2-Methoxy-2′-methyl-[1,1′-biphenyl]-4-yl)carbonyl]-N-methyl-N-[2-(2-pyridinyl)ethyl]-10,11-dihydro-5H-pyrrolo[2,1-c][1,4]benzodiazepine-3-carboxamide]",15%
3,"COc1cccc(-c2ccc(C(=O)N3Cc4ccc(C(=O)N5CCN(c6ccccn6)CC5)n4Cc4ccccc43)cc2OC)c1 [Example 85, {10-[(2,3′-Dimethoxy-[1,1′-biphenyl]-4-yl)carbonyl]-10,11-dihydro-5H-pyrrolo[2,1-c][1,4]benzodiazepin-3-yl}[4-(2-pyridinyl)-1-piperazinyl]methanone]",5%
4,"COc1ccccc1-c1ccc(C(=O)N2Cc3ccc(C(=O)NCc4ccncc4)n3Cc3ccccc32)cc1OC [Example 97, 10-[(2,2′-Dimethoxy-[1,1′-biphenyl]-4-yl)carbonyl]-N-(4-pyridinylmethyl)-10,11-dihydro-5H-pyrrolo[2,1-c][1,4]benzodiazepine-3-carboxamide]",16%
5,"COc1cccc(-c2cc(OC)c(C(=O)N3Cc4ccc(C(=O)N(C)CCc5ccccn5)n4Cc4ccccc43)cc2Cl)c1 [Example 70, 10-[(6-Chloro-3,3′-dimethoxy-[1,1′-biphenyl]-4-yl)carbonyl]-N-methyl-N-[2-(2-pyridinyl)ethyl]-10,11-dihydro-5H-pyrrolo[2,1-c][1,4]benzodiazepine-3-carboxamide]",10%
6,"COc1cccc(-c2cc(OC)c(C(=O)N3Cc4ccc(C(=O)NCc5ccncc5)n4Cc4ccccc43)cc2Cl)c1 [Example 95, 10-[(6-Chloro-3,3′-dimethoxy-[1,1′-biphenyl]-4-yl)carbonyl]-N-(4-pyridinylmethyl)-10,11-dihydro-5H-pyrrolo[2,1-c][1,4]benzodiazepine-3-carboxamide]",-1%
7,"COc1ccccc1-c1ccc(C(=O)N2Cc3ccc(C(=O)N(C)Cc4cccnc4)n3Cc3ccccc32)cc1 [Example 104, 10-[(2′-Methoxy-[1,1′-biphenyl]-4-yl)carbonyl]-N-methyl-N-(3-pyridinylmethyl)-10,11-dihydro-5H-pyrrolo[2,1-c][1,4]benzodiazepine-3-carboxamide]",23%
8,"Cc1cc(C(=O)N2Cc3ccc(C(=O)N4CCN(c5ccccn5)CC4)n3Cc3ccccc32)ccc1-c1ccccc1C(F)(F)F [Example 87, (10-{[2-Methyl-2′-trifluoromethyl-[1,1′-biphenyl]-4-yl]carbonyl}-10,11-dihydro-5H-pyrrolo[2,1-c][1,4]benzodiazepin-3-yl)[4-(2-pyridinyl)-1-piperazinyl]methanone]",4%
9,"Cc1ccccc1-c1ccc(C(=O)N2Cc3ccc(C(=O)N4CCN(c5ccccn5)CC4)n3Cc3ccccc32)cc1 [Example 79, {10-[(2′-Methyl-[1,1′-biphenyl]-4-yl)carbonyl]-10,11-dihydro-5H-pyrrolo[2,1-c][1,4]benzodiazepin-3-yl}[4-(2-pyridinyl)-1-piperazinyl]methanone]",10%
10,"O=C(c1ccc2n1Cc1ccccc1N(C(=O)c1ccc(-c3cccc4ccccc34)cc1Cl)C2)N1CCN(c2ccccn2)CC1 [Example 86, {10-[2-Chloro-4-(naphthalen-1-yl)benzoyl]-10,11-dihydro-5H-pyrrolo[2,1-c][1,4]benzodiazepin-3-yl}[4-(2-pyridinyl)-1-piperazinyl]methanone]",11%
11,"COc1cc(C(=O)N2Cc3ccc(C(=O)N4CCN(c5ccccn5)CC4)n3Cc3ccccc32)ccc1-c1ccccc1C [Example 80, {10-[(2-Methoxy-2′-methyl-[1,1′-biphenyl]-4-yl)carbonyl]-10,11-dihydro-5H-pyrrolo[2,1-c][1,4]benzodiazepin-3-yl}[4-(2-pyridinyl)-1-piperazinyl]methanone]",8%
12,"COc1cc(C(=O)N2Cc3ccc(C(=O)N(C)CCc4ccccn4)n3Cc3ccccc32)ccc1-c1cccc2ccccc12 [Example 71, 10-[3-Methoxy-4-(naphthalen-1-yl)benzoyl]-N-methyl-N-[2-(2-pyridinyl)ethyl]-10,11-dihydro-5H-pyrrolo[2,1-c][1,4]benzodiazepine-3-carboxamide]",24%
13,"Cc1ccccc1-c1ccc(C(=O)N2Cc3ccc(C(=O)NCc4ccncc4)n3Cc3ccccc32)cc1C [Example 89, 10-[(2,2′-Dimethyl-[1,1′-biphenyl]-4-yl)carbonyl]-N-(4-pyridinylmethyl)-10,11-dihydro-5H-pyrrolo[2,1-c][1,4]benzodiazepine-3-carboxamide]",15%
14,"Cc1ccccc1-c1ccc(C(=O)N2Cc3ccc(C(=O)NCc4ccncc4)n3Cc3ccccc32)cc1 [Example 92, 10-[(2′-Methyl-[1,1′-biphenyl]-4-yl)carbonyl]-N-(4-pyridinylmethyl)-10,11-dihydro-5H-pyrrolo[2,1-c][1,4]benzodiazepine-3-carboxamide]",0%
15,"COc1cc(C(=O)N2Cc3ccc(C(=O)NCc4ccncc4)n3Cc3ccccc32)ccc1-c1cccc2ccccc12 [Example 96, 10-[3-Methoxy-4-(naphthalen-1-yl)benzoyl]-N-(4-pyridinylmethyl)-10,11-dihydro-5H-pyrrolo[2,1-c][1,4]benzodiazepine-3-carboxamide]",22%
16,"COc1ccccc1-c1ccc(C(=O)N2Cc3ccc(C(=O)N4CCN(c5ccccn5)CC4)n3Cc3ccccc32)cc1OC [Example 84, {10-[(2,2′-Dimethoxy-[1,1′-biphenyl]-4-yl)carbonyl]-10,11-dihydro-5H-pyrrolo[2,1-c][1,4]benzodiazepin-3-yl}[4-(2-pyridinyl)-1-piperazinyl]methanone]",14%

# Same assay, conditions: value in parentheses
row,Compound,pIC50
1,"COc1cc(C(=O)N2Cc3ccc(C(=O)N(C)Cc4cccnc4)n3Cc3ccccc32)ccc1-c1ccccc1C(F)(F)F [Example 7, 10-{[2-Methoxy-2′-trifluoromethyl-[1,1′-biphenyl]-4-yl]carbonyl}-N-methyl-N-(pyridin-3-ylmethyl)-10,11-dihydro-5H-pyrrolo[2,1-c][1,4]benzodiazepine-3-carboxamide]",6.39
2,"Cc1cc(C(=O)N2Cc3ccc(C(=O)N(C)Cc4ccc[n+]([O-])c4)n3Cc3ccccc32)ccc1-c1ccccc1C(F)(F)F [Example 4, N-Methyl-10-{[2-methyl-2′-trifluoromethyl-[1,1′-biphenyl]-4-yl]carbonyl}-N-[(1-oxidopyridin-3-yl)methyl]-10,11-dihydro-5H-pyrrolo[2,1-c][1,4]benzodiazepine-3-carboxamide]",6.33
3,"COc1cccc(-c2ccc(C(=O)N3Cc4ccc(C(=O)N(C)Cc5cccnc5)n4Cc4ccccc43)cc2C)c1 [Example 102, 10-[(3′-Methoxy-2-methyl-[1,1′-biphenyl]4-yl)carbonyl]-N-methyl-N-(3-pyridinyImethyl)-10,11-dihydro-5H-pyrrolo[2,1-c][1,4]benzodiazepine-3-carboxamide]",6.27
4,"Cc1cc(C(=O)N2Cc3ccc(C(=O)N(C)Cc4cccnc4)n3Cc3ccccc32)ccc1-c1ccccc1C(F)(F)F [Example 112, N-Methyl-10-{[2-methyl-2′-trifluoromethyl-[1,1′-biphenyl]-4-yl]carbonyl}-N-(3-pyridinylmethyl)-10,11-dihydro-5H-pyrrolo[2,1-c][1,4]benzodiazepine-3-carboxamide]",5.95
5,"Cc1cc(C(=O)N2Cc3ccc(C(=O)N4CCN(Cc5ccc[n+]([O-])c5C)CC4)n3Cc3ccccc32)ccc1-c1ccccc1C(F)(F)F [Example 3, 3-({4-[(2-Methyl-1-oxidopyridin-3-yl)methyl]piperazin-1-yl}carbonyl)-10-{[2-methyl-2′-trifluoromethyl-[1,1′-biphenyl]-4-yl]carbonyl}-10,11-dihydro-5H-pyrrolo[2,1-c][1,4]benzodiazepine]",< 5.52
6,"COc1cc(-c2ccccc2C)c(Cl)cc1C(=O)N1Cc2ccc(C(=O)N(C)CCc3ccccn3)n2Cc2ccccc21 [Example 63, 10-[(6-Chloro-3-methoxy-2′-methyl-[1,1′-biphenyl]-4-yl)carbonyl]-N-methyl-N-[2-(2-pyridinyl)ethyl]-10,11-dihydro-5H-pyrrolo[2,1-c][1,4]benzodiazepine-3-carboxamide]",6.15
7,"COc1ccccc1-c1ccc(C(=O)N2Cc3ccc(C(=O)N(C)Cc4cccnc4)n3Cc3ccccc32)cc1C [Example 101, 10-[(2′-Methoxy-2-methyl-[1,1′-biphenyl]-4-yl)carbonyl]-N-methyl-N-(3-pyridinylmethyl)-10,11-dihydro-5H-pyrrolo[2,1-c][1,4]benzodiazepine-3-carboxamide]",6.57
8,"Cc1cc(C(=O)N2Cc3ccc(C(=O)N4CCN(Cc5ccc[n+]([O-])c5)CC4)n3Cc3ccccc32)ccc1-c1ccccc1C(F)(F)F [Example 2, 10-{[2-Methyl-2′-trifluoromethyl-[1,1′-biphenyl]-4-yl]carbonyl}-3-({4-[(1-oxidopyridin-3-yl)methyl]piperazin-1-yl}carbonyl)-10,11-dihydro-5H-pyrrolo[2,1-c][1,4]benzodiazepine]",5.85
9,"COc1ccccc1-c1ccc(C(=O)N2Cc3ccc(C(=O)N(C)Cc4cccnc4)n3Cc3ccccc32)cc1OC [Example 103, 10-[(2,2′-Dimethoxy-[1,1′-biphenyl]-4-yl)carbonyl]-N-methyl-N-(3-pyridinylmethyl)-10,11-dihydro-5H-pyrrolo[2,1-c][1,4]benzodiazepine-3-carboxamide]",6.50
